Data taken from US12098145B2 (Libra Therapeutics, Inc., priority 2022, dated 2024).
Read-outs that look alike come from different tables or passages of the source.

Key:
[1] = test system: TFEB; test: TFEB translocation assay (TFEB reporter in U2OS cells, imaging); assay type: cell-based; details: Homo sapiens; U2OS cell line with TFEB reporter, 2 hours incubation, nucleus to cytoplasm ratio, normalized to Torin-1; read-out: TFEB Translocation pEC50 (converted)
In short: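 Activity expresses the mean nuclear-to-cytosolic reporter ratio scaled between DMSO (0%) and Torin-1 (100%) controls. Read-out came from high-content imaging of fixed, Hoechst-counterstained U2OS cells carrying mRFP-tagged TFEB after 2 h compound exposure at 37 °C in Opti-MEM with 0.015% Tween 80 and 0.5% DMSO.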

[2] = biological target: T1, TRPML1 (Homo sapiens, UniProt Q9GZU1); test: Cellular TRPML1 assay (FLIPR, GCaMP6f calcium read-out); assay type: cell-based
T1 construct: expressed in transfected cells; host or cells: HEK T-REx cells stably expressing GCaMP6f and TRPML1
T1 sequence (Q9GZU1 whole entry): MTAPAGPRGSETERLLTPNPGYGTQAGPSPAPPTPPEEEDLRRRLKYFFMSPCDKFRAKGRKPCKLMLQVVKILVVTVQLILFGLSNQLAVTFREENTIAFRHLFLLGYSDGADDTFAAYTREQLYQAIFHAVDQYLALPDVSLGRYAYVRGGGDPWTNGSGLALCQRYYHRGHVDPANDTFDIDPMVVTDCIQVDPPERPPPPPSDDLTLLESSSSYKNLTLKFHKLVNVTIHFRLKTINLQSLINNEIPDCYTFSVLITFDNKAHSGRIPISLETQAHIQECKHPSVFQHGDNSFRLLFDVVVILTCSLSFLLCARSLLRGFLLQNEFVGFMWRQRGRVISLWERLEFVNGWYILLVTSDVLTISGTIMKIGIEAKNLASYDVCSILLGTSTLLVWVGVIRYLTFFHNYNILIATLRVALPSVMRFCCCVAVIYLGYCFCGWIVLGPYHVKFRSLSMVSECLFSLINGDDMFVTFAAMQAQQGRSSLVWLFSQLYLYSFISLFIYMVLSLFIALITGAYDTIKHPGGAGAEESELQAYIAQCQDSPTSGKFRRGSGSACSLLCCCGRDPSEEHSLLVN
In short: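 Read-out is GCaMP6f fluorescence over 300 s after compound addition in Ca2+-free Tyrode's buffer, final DMSO 0.5%, on FLIPR Tetra. Cells are HEK T-REx stably co-expressing the indicator and TRPML1, plated 24 h earlier in Optimem + 0.5% FBS and pre-incubated ~10 min at room temperature.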

[3] = HEKT-REx/GCaMP6f/TRPML1 cells, FLIPR TETRA, kinetic response over 300 seconds, read-out: TRPML1 FLIPR pEC50 (converted)

Row | Structure (SMILES) | EC50 [1] | EC50 [2, 3] | EC50 [2]
1 | CCC1(CC)CN(c2nc(C(=O)Nc3cc(O)c(O[C@@H]4C[C@@H]5C[C@@H]5C4)c(F)c3)c(CC(F)(F)F)o2)C1 [Example 269, N-(4-(cis-bicyclo[3.1.0]hexan-3-yloxy)-3-fluoro-5-hydroxyphenyl)-2-(3,3-diethylazetidin-1-yl)-5-(2,2,2-trifluoroethyl)oxazole-4-carboxamide] | 10 to 1000 nM | 10 to 1000 nM | –
2 | COC1(C)CN(c2nc(C(=O)Nc3cc(O)c(N4C5CCCC4CC5)c(F)c3)c(CC(F)(F)F)o2)C1 [Example 272, N-(4-(8-azabicyclo[3.2.1]octan-8-yl)-3-fluoro-5-hydroxyphenyl)-2-(3-methoxy-3-methylazetidin-1-yl)-5-(2,2,2-trifluoroethyl)oxazole-4-carboxamide] | 10 to 1000 nM | – | 10 to 1000 nM
3 | CCCc1oc(N2CCC3CCCC32)nc1C(=O)Nc1cc(F)c(OC2CC3C[C@H]3C2)c(F)c1 (stereo partly drawn) [Example 275, N-(4-(cis-bicyclo[3.1.0]hexan-3-yloxy)-3,5-difluorophenyl)-2-(hexahydrocyclopenta[b]pyrrol-1(2H)-yl)-5-propyloxazole-4-carboxamide] | 10 to 1000 nM | 10 to 1000 nM | –
4 | COC1(C)CN(c2nc(C(=O)Nc3cc(F)c(O[C@@H]4C[C@@H]5C[C@@H]5C4)c(F)c3)c(CCF)o2)C1 [Example 276, N-(4-(cis-bicyclo[3.1.0]hexan-3-yloxy)-3,5-difluorophenyl)-5-(2-fluoroethyl)-2-(3-methoxy-3-methylazetidin-1-yl)oxazole-4-carboxamide] | 10 to 1000 nM | 10 to 1000 nM | –
5 | CCC1(OC)CN(c2nc(C(=O)Nc3cc(C)c(OC4CC5CC(C5)C4)c(F)c3)c(CCF)o2)C1 (centres unmarked) [Example 277, N-(4-(bicyclo[3.1.1]heptan-3-yloxy)-3-fluoro-5-methylphenyl)-2-(3-ethyl-3-methoxyazetidin-1-yl)-5-(2-fluoroethyl)oxazole-4-carboxamide] | 10 to 1000 nM | 10 to 1000 nM | –
6 | Cc1cc(NC(=O)c2nc(N3CCCC3)oc2CCF)cc(F)c1OC1CC2CC(C2)C1 (centres unmarked) [Example 278, N-(4-(bicyclo[3.1.1]heptan-3-yloxy)-3-fluoro-5-methylphenyl)-5-(2-fluoroethyl)-2-(pyrrolidin-1-yl)oxazole-4-carboxamide] | 10 to 1000 nM | 10 to 1000 nM | –
7 | O=C(Nc1cc(F)c(OC2CC3CC(C3)C2)c(F)c1)c1nc(N2CCCC2)oc1CCF (centres unmarked) [Example 279, N-(4-(bicyclo[3.1.1]heptan-3-yloxy)-3,5-difluorophenyl)-5-(2-fluoroethyl)-2-(pyrrolidin-1-yl)oxazole-4-carboxamide] | 10 to 1000 nM | 10 to 1000 nM | –
8 | COC1(C)CN(c2nc(C(=O)Nc3cc(C)c(O[C@@H]4C[C@@H]5C[C@@H]5C4)c(F)c3)c(CCF)o2)C1 [Example 280, N-(4-(cis-bicyclo[3.1.0]hexan-3-yloxy)-3-fluoro-5-methylphenyl)-5-(2-fluoroethyl)-2-(3-methoxy-3-methylazetidin-1-yl)oxazole-4-carboxamide] | 10 to 1000 nM | 10 to 1000 nM | –
9 | COC1(C)CN(c2nc(C(=O)Nc3cc(C)c(OC4CC5CC(C5)C4)c(F)c3)c(CCF)o2)C1 (centres unmarked) [Example 281, N-(4-(bicyclo[3.1.1]heptan-3-yloxy)-3-fluoro-5-methylphenyl)-5-(2-fluoroethyl)-2-(3-methoxy-3-methylazetidin-1-yl)oxazole-4-carboxamide] | 10 to 1000 nM | 10 to 1000 nM | –
10 | CCC1(CC)CN(c2nc(C(=O)Nc3cc(C)c(OC4CC5CC(C5)C4)c(F)c3)c(CCF)o2)C1 (centres unmarked) [Example 282, N-(4-(bicyclo[3.1.1]heptan-3-yloxy)-3-fluoro-5-methylphenyl)-2-(3,3-diethylazetidin-1-yl)-5-(2-fluoroethyl)oxazole-4-carboxamide] | 10 to 1000 nM | 10 to 1000 nM | –
11 | CCC1(CC)CN(c2nc(C(=O)Nc3ccc(OC4CC5CC(C5)C4)c(F)c3)c(CCF)o2)C1 (centres unmarked) [Example 283, N-(4-(bicyclo[3.1.1]heptan-3-yloxy)-3-fluorophenyl)-2-(3,3-diethylazetidin-1-yl)-5-(2-fluoroethyl)oxazole-4-carboxamide] | 10 to 1000 nM | 10 to 1000 nM | –
12 | O=C(Nc1cc(F)c(OC2CC3CC(C3)C2)c(F)c1)c1nc(N2CCC3(CC3)C2)oc1CCF (centres unmarked) [Example 284, N-(4-(bicyclo[3.1.1]heptan-3-yloxy)-3,5-difluorophenyl)-5-(2-fluoroethyl)-2-(5-azaspiro[2.4]heptan-5-yl)oxazole-4-carboxamide] | 10 to 1000 nM | 10 to 1000 nM | –
13 | CCC1(CC)CN(c2nc(C(=O)Nc3cc(C)c(O[C@@H]4C[C@@H]5C[C@@H]5C4)c(F)c3)c(CCF)o2)C1 [Example 285, N-(4-(cis-bicyclo[3.1.0]hexan-3-yloxy)-3-fluoro-5-methylphenyl)-2-(3,3-diethylazetidin-1-yl)-5-(2-fluoroethyl)oxazole-4-carboxamide] | 10 to 1000 nM | 10 to 1000 nM | –
14 | CCC1(CC)CN(c2nc(C(=O)Nc3cc(F)c(OC4CC5CC(C5)C4)c(F)c3)c(CCF)o2)C1 (centres unmarked) [Example 286, N-(4-(bicyclo[3.1.1]heptan-3-yloxy)-3,5-difluorophenyl)-2-(3,3-diethylazetidin-1-yl)-5-(2-fluoroethyl)oxazole-4-carboxamide] | 10 to 1000 nM | 10 to 1000 nM | –
15 | CCC1(CC)CN(c2nc(C(=O)Nc3cc(F)c(O[C@@H]4C[C@@H]5C[C@@H]5C4)c(F)c3)c(CCF)o2)C1 [Example 287, N-(4-(cis-bicyclo[3.1.0]hexan-3-yloxy)-3,5-difluorophenyl)-2-(3,3-diethylazetidin-1-yl)-5-(2-fluoroethyl)oxazole-4-carboxamide] | 10 to 1000 nM | 10 to 1000 nM | –
16 | O=C(Nc1cc(F)c(O[C@@H]2C[C@@H]3C[C@@H]3C2)c(F)c1)c1nc(N2CCC3(CC3)C2)oc1CCF [Example 288, N-(4-(cis-bicyclo[3.1.0]hexan-3-yloxy)-3,5-difluorophenyl)-5-(2-fluoroethyl)-2-(5-azaspiro[2.4]heptan-5-yl)oxazole-4-carboxamide] | 10 to 1000 nM | 10 to 1000 nM | –
17 | CCC1(CC)CN(c2nc(C(=O)Nc3cc(C)c(N4C5CCCC4CC5)c(F)c3)c(CCF)o2)C1 [Example 289, N-(4-(8-azabicyclo[3.2.1]octan-8-yl)-3-fluoro-5-methylphenyl)-2-(3,3-diethylazetidin-1-yl)-5-(2-fluoroethyl)oxazole-4-carboxamide] | 10 to 1000 nM | – | 10 to 1000 nM
18 | COC1(C)CN(c2nc(C(=O)Nc3cc(C)c(N4C5CCCC4CC5)c(F)c3)c(CCF)o2)C1 [Example 290] | 10 to 1000 nM | – | 10 to 1000 nM
19 | CCC1(CC)CN(c2nc(C(=O)Nc3cc(C)c(O[C@@H]4C[C@@H]5C[C@@H]5C4)c(F)c3)c(COC)o2)C1 [Example 293, N-(4-(cis-bicyclo[3.1.0]hexan-3-yloxy)-3-fluoro-5-methylphenyl)-2-(3,3-diethylazetidin-1-yl)-5-(methoxymethyl)oxazole-4-carboxamide] | 10 to 1000 nM | 10 to 1000 nM | –
20 | COCc1oc(N2CC(C)(OC)C2)nc1C(=O)Nc1cc(C)c(O[C@@H]2C[C@@H]3C[C@@H]3C2)c(F)c1 [Example 294, N-(4-(cis-bicyclo[3.1.0]hexan-3-yloxy)-3-fluoro-5-methylphenyl)-2-(3-methoxy-3-methylazetidin-1-yl)-5-(methoxymethyl)oxazole-4-carboxamide] | 10 to 1000 nM | 10 to 1000 nM | –
21 | CCC1(CC)CN(c2nc(C(=O)Nc3cc(F)c(OC4CC5C[C@H]5C4)c(F)c3)c(COC)o2)C1 (stereo partly drawn) [Example 295, N-(4-(cis-bicyclo[3.1.0]hexan-3-yloxy)-3,5-difluorophenyl)-2-(3,3-diethylazetidin-1-yl)-5-(methoxymethyl)oxazole-4-carboxamide] | 10 to 1000 nM | 10 to 1000 nM | –
22 | COCc1oc(N2CC(C)(CO)C2)nc1C(=O)Nc1cc(C)c(OC2CC3CC(C3)C2)c(F)c1 (centres unmarked) [Example 296, N-(4-(bicyclo[3.1.1]heptan-3-yloxy)-3-fluoro-5-methylphenyl)-2-(3-(hydroxymethyl)-3-methylazetidin-1-yl)-5-(methoxymethyl)oxazole-4-carboxamide] | 10 to 1000 nM | 10 to 1000 nM | –
23 | CCC1(CC)CN(c2nc(C(=O)Nc3cc(F)c(O[C@@H]4C[C@@H]5C[C@@H]5C4)c(F)c3)c(CN3CCCC3)o2)C1 [Example 299, N-(4-(cis-bicyclo[3.1.0]hexan-3-yloxy)-3,5-difluorophenyl)-2-(3,3-diethylazetidin-1-yl)-5-(pyrrolidin-1-ylmethyl)oxazole-4-carboxamide] | 10 to 1000 nM | 10 to 1000 nM | –
24 | CCN(C)Cc1oc(N2CC(CC)(OC)C2)nc1C(=O)Nc1cc(F)c(OC2CC3CC(C3)C2)c(F)c1 (centres unmarked) [Example 302, N-(4-(bicyclo[3.1.1]heptan-3-yloxy)-3,5-difluorophenyl)-5-((ethyl(methyl)amino)methyl)-2-(3-ethyl-3-methoxyazetidin-1-yl)oxazole-4-carboxamide] | 10 to 1000 nM | 10 to 1000 nM | –
25 | CCC1(OC)CN(c2nc(C(=O)Nc3cc(F)c(O[C@@H]4C[C@@H]5C[C@@H]5C4)c(F)c3)c(CN(C)C)o2)C1 [Example 303, N-(4-(cis-bicyclo[3.1.0]hexan-3-yloxy)-3,5-difluorophenyl)-5-((dimethylamino)methyl)-2-(3-ethyl-3-methoxyazetidin-1-yl)oxazole-4-carboxamide] | 10 to 1000 nM | 10 to 1000 nM | –
